In patent US20240408086A1, “USE OF LUVADAXISTAT FOR THE TREATMENT OF COGNITIVE IMPAIRMENT” (TAKEDA PHARMACEUTICAL COMPANY LIMITED, priority 2021, published 2024):

Test system: adult patients with persistent negative symptoms of schizophrenia
Format: in vivo, human
Source text: To assess changes in cognitive impairment associated with schizophrenia (CIAS), secondary endpoints included the 12-week change from baseline in the Brief Assessment of Cognition in Schizophrenia (BACS) composite score, a measure of cognition across multiple domains, and the Schizophrenia Cognition Rating Scale (SCORS) score, a measure of day-to-day cognitive functioning requiring input from an adult informant. Secondary endpoints were not corrected for multiplicity.
The BACS is specifically designed to measure treatment-related improvements in cognition and includes alternate forms. BACS is a reliable and sensitive measure of cognitive function in schizophrenia. The BACS is a cognition assessment battery that assesses 6 domains of cognitive function found to be consistently impaired in schizophrenia: verbal memory; working memory; motor speed; attention; executive functions; and verbal fluency. The primary measure from each test of the BACS is standardized by creating T-scores whereby the mean of the test session of a matched reference healthy participant is set to 50 and the standard deviation set to 10.

[1] = 50 mg once daily, MMRM, preliminary analysis
[2] = 50 mg once daily, preliminary analysis

In the case of `O=c1[nH]nc(CCc2ccc(C(F)(F)F)cc2)cc1O` [Compound (I), luvadaxistat], the “BACS composite score, effect size versus placebo” value (50 mg once daily, 12 weeks, p=0.031, not corrected for multiplicity) is reported as 0.4, the “BACS Verbal Memory Cognition Domain, Difference from Placebo for Week 12, LS Mean (SE)” value (50 mg once daily, MMRM, one-sided unadjusted p 0.038, preliminary analysis) is reported as 2.6 (1.43) and the “BACS Composite Score, Difference from Placebo for Week 12, LS Mean (SE)” value (50 mg once daily, MMRM, one-sided unadjusted p 0.046, preliminary analysis) is reported as 1.9 (1.15). For the same compound, the “BACS Verbal Memory Cognition Domain, Difference from Placebo for Week 6, LS Mean (SE)” value (50 mg once daily, MMRM, one-sided unadjusted p 0.071, preliminary analysis) was 1.9 (1.29), the “BACS Composite Score, Difference from Placebo for Week 6, LS Mean (SE)” value (50 mg once daily, MMRM, one-sided unadjusted p 0.096, preliminary analysis) was 1.3 (1.01) and the “BACS Motor Speed Cognition Domain, Difference from Placebo for Week 12, LS Mean (SE)” value (50 mg once daily, MMRM, one-sided unadjusted p 0.101, preliminary analysis) was 1.5 (1.17). The “BACS Working Memory Cognition Domain, Difference from Placebo for Week 12, LS Mean (SE)” value (50 mg once daily, MMRM, one-sided unadjusted p 0.413, preliminary analysis) was 0.3 (1.34), the “BACS Motor Speed Cognition Domain, Difference from Placebo for Week 6, LS Mean (SE)” value (50 mg once daily, MMRM, one-sided unadjusted p 0.440, preliminary analysis) was 0.2 (1.26) and the “BACS Working Memory Cognition Domain, Difference from Placebo for Week 6, LS Mean (SE)” value (50 mg once daily, MMRM, one-sided unadjusted p 0.507, preliminary analysis) was 0.0 (1.15). For the same compound, the “BACS Composite Score, Adjusted Change from Baseline to Week 6, LS Mean (SE)” value [1] was 0.9 (0.81), the “BACS Composite Score, Adjusted Change from Baseline to Week 12, LS Mean (SE)” value [1] was 2.7 (0.92) and the “BACS Motor Speed Cognition Domain, Adjusted Change from Baseline to Week 6, LS Mean (SE)” value [1] was 0.1 (1.00). The “BACS Motor Speed Cognition Domain, Adjusted Change from Baseline to Week 12, LS Mean (SE)” value [1] was 1.0 (0.93), the “BACS Verbal Memory Cognition Domain, Adjusted Change from Baseline to Week 6, LS Mean (SE)” value [1] was 0.6 (1.04) and the “BACS Verbal Memory Cognition Domain, Adjusted Change from Baseline to Week 12, LS Mean (SE)” value [1] was 1.9 (1.13). For the same compound, the “BACS Working Memory Cognition Domain, Adjusted Change from Baseline to Week 6, LS Mean (SE)” value [1] was 0.0 (0.92), the “BACS Working Memory Cognition Domain, Adjusted Change from Baseline to Week 12, LS Mean (SE)” value [1] was 0.9 (1.06) and the “BACS composite score, 12-week LS mean change from baseline” value (50 mg once daily, placebo 2.3) was 4.6. For the same compound, the “BACS Composite Score, Change from Baseline to Week 6, Mean (SD)” value [2] was 1.7 (5.81), the “BACS Composite Score, Change from Baseline to Week 6, Median” value [2] was 2.0 and the “BACS Composite Score, Change from Baseline to Week 12, Mean (SD)” value [2] was 3.8 (5.91). For the same compound, the “BACS Composite Score, Change from Baseline to Week 12, Median” value [2] was 3.0, the “BACS Composite Score, Week 6, Mean (SD)” value [2] was 35.4 (14.53) and the “BACS Composite Score, Week 6, Median” value [2] was 34.0. The “BACS Composite Score, Week 12, Mean (SD)” value [2] was 37.7 (13.30), the “BACS Composite Score, Week 12, Median” value [2] was 37.5 and the “BACS Motor Speed Cognition Domain, Change from Baseline to Week 6, Mean (SD)” value [2] was 1.7 (5.73). For the same compound, the “BACS Motor Speed Cognition Domain, Change from Baseline to Week 6, Median” value [2] was 1.0, the “BACS Motor Speed Cognition Domain, Change from Baseline to Week 12, Mean (SD)” value [2] was 2.6 (6.80) and the “BACS Motor Speed Cognition Domain, Change from Baseline to Week 12, Median” value [2] was 1.0. The “BACS Motor Speed Cognition Domain, Week 6, Mean (SD)” value [2] was 40.6 (13.61), the “BACS Motor Speed Cognition Domain, Week 6, Median” value [2] was 40.0 and the “BACS Motor Speed Cognition Domain, Week 12, Mean (SD)” value [2] was 42.0 (12.93). For the same compound, the “BACS Motor Speed Cognition Domain, Week 12, Median” value [2] was 41.5, the “BACS Verbal Memory Cognition Domain, Change from Baseline to Week 6, Mean (SD)” value [2] was 1.6 (7.40) and the “BACS Verbal Memory Cognition Domain, Change from Baseline to Week 6, Median” value [2] was 0.0. The “BACS Verbal Memory Cognition Domain, Change from Baseline to Week 12, Mean (SD)” value [2] was 3.2 (7.87), the “BACS Verbal Memory Cognition Domain, Change from Baseline to Week 12, Median” value [2] was 4.0 and the “BACS Verbal Memory Cognition Domain, Week 6, Mean (SD)” value [2] was 41.7 (11.59). For the same compound, the “BACS Verbal Memory Cognition Domain, Week 6, Median” value [2] was 44.5, the “BACS Verbal Memory Cognition Domain, Week 12, Mean (SD)” value [2] was 42.9 (12.41) and the “BACS Verbal Memory Cognition Domain, Week 12, Median” value [2] was 43.5. The “BACS Working Memory Cognition Domain, Change from Baseline to Week 6, Mean (SD)” value [2] was 1.0 (6.60), the “BACS Working Memory Cognition Domain, Change from Baseline to Week 6, Median” value [2] was 0.0 and the “BACS Working Memory Cognition Domain, Change from Baseline to Week 12, Mean (SD)” value [2] was 2.1 (6.61). The “BACS Working Memory Cognition Domain, Change from Baseline to Week 12, Median” value [2] was 1.0, the “BACS Working Memory Cognition Domain, Week 6, Mean (SD)” value [2] was 40.8 (14.10) and the “BACS Working Memory Cognition Domain, Week 6, Median” value [2] was 42.0. The “BACS Working Memory Cognition Domain, Week 12, Mean (SD)” value [2] was 42.0 (13.95), the “BACS Working Memory Cognition Domain, Week 12, Median” value [2] was 42.5 and the “BACS Attention Cognition Domain, Change from Baseline to Week 6, Mean (SD)” value (50 mg, Week 6) was 0.9 (7.74). The “BACS Attention Cognition Domain, Change from Baseline to Week 6, Median” value (50 mg, Week 6) was 0.0, the “BACS Attention Cognition Domain, Week 6, Mean (SD)” value (50 mg, Week 6) was 36.0 (14.78) and the “BACS Attention Cognition Domain, Week 6, Median” value (50 mg, Week 6) was 34.0. The “BACS Executive Functions Cognition Domain, Change from Baseline to Week 6, Mean (SD)” value (50 mg, Week 6) was 1.6 (10.55), the “BACS Executive Functions Cognition Domain, Change from Baseline to Week 6, Median” value (50 mg, Week 6) was 2.0 and the “BACS Executive Functions Cognition Domain, Week 6, Mean (SD)” value (50 mg, Week 6) was 44.9 (11.66). For the same compound, the “BACS Executive Functions Cognition Domain, Week 6, Median” value (50 mg, Week 6) was 48.5, the “BACS Verbal Fluency Cognition Domain, Change from Baseline to Week 6, Mean (SD)” value (50 mg, Week 6) was −0.2 (5.57) and the “BACS Verbal Fluency Cognition Domain, Change from Baseline to Week 6, Median” value (50 mg, Week 6) was 0.0. For the same compound, the “BACS Verbal Fluency Cognition Domain, Week 6, Mean (SD)” value (50 mg, Week 6) was 39.9 (10.86), the “BACS Verbal Fluency Cognition Domain, Week 6, Median” value (50 mg, Week 6) was 38.0 and the “BACS Attention Cognition Domain, Adjusted Change from Baseline to Week 6, LS Mean (SE)” value (50 mg, Week 6, MMRM) was 1.0 (0.90).
